In US5473039A, “Polypeptide analogs of apolipoprotein E, diagnostic systems and methods using the analogs” (The Scripps Research Institute, priority 1991, dated 1995):

Experiments:
[1] = tested on: ovarian theca/interstitial cells; assay: ovarian androgen (androstenedione) production, LH-stimulated cultures; assay type: cell-based, rats; details: 48 hours
Text: The cell system used to examine the effect of various peptides and conjugates on ovarian androgen production was that described by Curtiss et al., J. Biol. Chem., 263:10965, (1988). Briefly, hypophysectomized (pituitary removed) immature female rats are sacrificed by cervical dislocation. The ovaries taken from the rats were trimmed free of fat and other non-ovarian tissues, cut into approximately six to eight pieces per ovary and dissociated in a solution of collagenase Dnaase which degrades the connective tissue releasing cell clusters. Approximately one to two hours of 37C incubation is required to dissociate the tissue. The cells were washed three times with fresh McCoy's 5A modified medium supplemented with glutamine and penicillin/streptomycin. No serum was added to this medium. The cells were cultured over night in 10 ml of medium in a T-25 flask to allow the non-steroidogenic cells to adhere. The next day non-adherent cells were recovered, washed three times with fresh media, counted and plated at a density of 1×10^3/ ml aliquotting 0.2 ml per well of a 96-well microtiter plate. All media in the experiment contains luteinizing hormone (LH) at 4 ng/ml and human high density lipoprotein (HDL) at 300 μg protein/mi. Monomeric peptides, peptide-BSA conjugates and self-conjugated peptide preparations at various concentrations (0.2 to 50 μg/ml) were added to the cells. The cells were then cultured for 48 hours at 37C, the supernatants were recovered, transferred to a clean 96-well microtiter plate and kept at -20C until the concentrations of androstenedione and progesterone were measured by radioimmunoassay. Each data point represents the average of measured androstenedione concentrations in four wells per treatment, and the standard error was less than 10% for all data points.
The ability of tandem Apo E peptide p(141-155)2 and self-conjugates of this peptide to affect ovarian androgen production was examined using the assay described in Example 4. […] After 48 hours of culture, the supernatants were collected, the androstenedione concentration measured by radioimmunoassay. […]

scavenger receptor = assay: 125I-aLDL degradation by PMA-stimulated THP-1 cells; assay type: cell-based, human
Experimental: To verify that the inhibition of LDL degradation was specific for the LDL receptor, the effect of the tandem peptide on scavenger receptor processing of acetylated LDL (aLDL) was tested.
THP-1 cells (5×10^5 in 1.0ml of DMEM medium per 16 mm culture dish) were stimulated with PMA (10^-7 M) for 4 days. LDL was acetylated (Hara, H. et al., Biochem. Biophys. Res. Comm., 146(2):802-808, 1987) and then radio-labeled as described in Example 8 to a specific activity of 300-500 cpm/ng resulting in ^125 I-aLDL that was greater than 99% precipitable by 10% TCA. The cells were washed with PBS and the assay performed in DMEM medium supplemented with 1% Nutridoma-HU plus 25 μg/ml of ^125 I-aLDL. After 5 hr at 37° C., the supernatants were removed from the wells and extracted with 10% TCA. The B/B0 ratios were analyzed as described above. The results are depicted in FIG. 1B.

[2] = tested on: Human peripheral blood mononuclear (PBM) cells; assay: PHA-stimulated PBM cell proliferation in serum-free CFBI medium; assay type: cell-based
Experimental: In these studies, human peripheral blood mononuclear (PBM) cells were isolated and assayed for phytohemagglutinin (PHA)-stimulated proliferation as described by Pepe et al (J. Immunol., 136:3716-3723, 1986) except that the cells were resuspended and cultured in a serum-free and protein-free CFBI medium as described by Shive et al, Proc. Natl. Acad. Sci. […] After 48 h the cultures were pulsed for 18 h with […] of [^3 H]-methylthymidine and harvested onto glass fiber filters. Radioactivity of the filters was counted in a Beckman liquid scintillation counter. […] The average biological activity of each polypeptide for inhibiting lymphocyte […] proliferation is shown in Table 6, and is expressed as an average specific activity, which is the peptide concentration that causes a 50% reduction in activity.

LDL receptor = LDL receptor (Homo sapiens, UniProt P01130); assay: 125I-LDL degradation by unstimulated THP-1 cells; assay type: cell-based; set-up: In the undifferentiated state THP-1 cells express LDL receptors that are regulated by the lipoprotein content of the culture medium; host or cells: THP-1 cells (unstimulated)
Text: THP-1 cells were acquired from American Type Culture Collection and cultured in serum-free RPMI-1640 medium supplemented with 1% Nutridoma-HU for 48 hr to upregulate the LDL receptors. LDL was isolated by ultracentrifugation and radiolabeled using the iodine monochloride method as described in Example 8 to a specific activity 200-300 cpm/ng. Greater than 99% of the ^125 I-LDL ligand was precipitable by 10% TCA. The peptides indicated in FIGS. 1A and 1B were synthesized, as described in Example 1, purified to >95% by high pressure liquid chromatography and the amino acid composition verified. All peptides were solubilized in PBS. "AI 74-105"is a control peptide derived from residues 74-105 of apolipoprotein AI, "Monomer" is p(141-155), "Tandem Peptide" is p(141-155)2, "LDL" is unlabelled LDL, and "aLDL" is acetylated LDL.
Binding and degradation of LDL was evaluated as the disappearance of acid soluble ^125 I-LDL radioactivity from the incubation over a 5-hour incubation at 37C. Various concentrations of unlabeled LDL or tandem apo E peptide were coincubated with the ^125 I-LDL to determine their effects on binding and degradation.
For assay, 5×10^5 THP-1 cells in 0.5ml DMEM were co-incubated in a 1.5ml microfuge tube with 2-5 μg/ml of ^125 I-LDL at 37° C. in the presence of various concentrations of competitors indicated in FIGS. 1A and 1B. After 5 hr the cells were pelleted at 5000 x g, the supernatants were removed and the supernatants were extracted with 10% TCA and counted to form a TCA soluble cpm. The results were expressed as B/Bo where B equals the total TCA soluble cpm in supernatant collected in the presence of LDL or peptide and Bo equals the total TCA soluble cpm in supernatant of phosphate buffered saline (PBS) treated control cells. Each point is the average of 4 replicates with standard error of the mean (SEM),10%.

Chain of LDL receptor (P01130 22-860): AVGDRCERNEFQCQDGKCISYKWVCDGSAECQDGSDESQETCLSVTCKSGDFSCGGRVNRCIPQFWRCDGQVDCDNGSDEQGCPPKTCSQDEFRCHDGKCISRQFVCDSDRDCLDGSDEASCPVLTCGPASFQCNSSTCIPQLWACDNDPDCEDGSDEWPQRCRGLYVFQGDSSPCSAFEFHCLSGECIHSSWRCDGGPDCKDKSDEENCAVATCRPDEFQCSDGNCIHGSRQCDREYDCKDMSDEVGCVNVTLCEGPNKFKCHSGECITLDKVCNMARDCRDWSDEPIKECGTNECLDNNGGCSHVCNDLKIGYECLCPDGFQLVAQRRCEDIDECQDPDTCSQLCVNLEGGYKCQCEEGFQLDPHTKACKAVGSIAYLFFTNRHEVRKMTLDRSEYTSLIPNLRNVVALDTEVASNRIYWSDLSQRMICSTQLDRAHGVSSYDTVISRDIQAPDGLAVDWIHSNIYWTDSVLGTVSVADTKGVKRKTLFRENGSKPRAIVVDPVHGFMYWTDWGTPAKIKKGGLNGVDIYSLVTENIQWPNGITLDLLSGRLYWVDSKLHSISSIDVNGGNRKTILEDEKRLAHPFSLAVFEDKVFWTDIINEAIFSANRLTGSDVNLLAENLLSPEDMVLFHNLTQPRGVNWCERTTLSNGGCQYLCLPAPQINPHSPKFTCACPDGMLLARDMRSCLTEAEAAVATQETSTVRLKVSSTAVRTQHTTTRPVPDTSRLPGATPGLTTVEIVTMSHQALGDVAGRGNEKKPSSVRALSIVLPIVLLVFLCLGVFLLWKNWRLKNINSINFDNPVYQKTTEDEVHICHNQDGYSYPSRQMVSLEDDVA

CC(C)C[C@H](NC(=O)[C@H](CC(=O)O)NC(=O)[C@H](CC(=O)O)NC(=O)[C@H](C)NC(=O)[C@H](CC(=O)O)NC(=O)[C@H](CCCNC(=N)N)NC(=O)[C@H](CC(C)C)NC(=O)[C@H](CC(C)C)NC(=O)[C@H](CCCNC(=N)N)NC(=O)[C@H](CCCCN)NC(=O)[C@H](CCCNC(=N)N)NC(=O)[C@H](CC(C)C)NC(=O)[C@H](CCCCN)NC(=O)[C@H](CCCNC(=N)N)NC(=O)[C@H](CC(C)C)NC(=O)[C@H](CC(C)C)NC(=O)[C@H](CC(=O)O)NC(=O)[C@H](CC(=O)O)NC(=O)[C@H](C)NC(=O)[C@H](CC(=O)O)NC(=O)[C@H](CCCNC(=N)N)NC(=O)[C@H](CC(C)C)NC(=O)[C@H](CC(C)C)NC(=O)[C@H](CCCNC(=N)N)NC(=O)[C@H](CCCCN)NC(=O)[C@H](CCCNC(=N)N)NC(=O)[C@H](CC(C)C)NC(=O)[C@H](CCCCN)NC(=O)[C@H](CCCNC(=N)N)NC(=O)[C@@H](N)CC(C)C)C(=O)O [p(141-155)2]
concentrations at which androstenedione production was enhanced [1]: less than 0.04 μg/ml | concentrations that inhibited androstenedione production ([1]; dose-dependent): 0.2 to 2 µg/mL | effect on 125I-aLDL degradation (scavenger receptor; listed as tandem apo E peptide): no effect | effect on 125I-aLDL degradation (scavenger receptor; listed as tandem peptide): Neither LDL or tandem peptide inhibited | biologic activity (inhibition of lymphocyte proliferation) [2]: loss of biologic activity | peptide concentration above which uptake of tritiated thymidine / lymphocyte proliferation was inhibited [2]: above 4 uM | IC50 ([2]; read-out: Average Specific Activity (peptide concentration that causes a 50% reduction in activity)): 4.8 ± 1.1 µM | molar excess compared with LDL required to achieve 50% inhibition of degradation (LDL receptor): ~200 fold | inhibition at 12.5 µM (LDL receptor; THP-1, 12.5 uM): 80% | effect on LDL degradation by THP-1 cells (LDL receptor; low concentrations of the tandem peptide): significant enhancement | IC50 (LDL receptor; read-out: concentration inhibiting 125I-LDL degradation by 50%): 5 µM
